Experimental findings from US10604554B2, “Double-acylated GLP-1 derivatives” (Novo Nordisk A/S, priority 2012, dated 2020) are described below.

Assay [1] concerns the target T1, human GLP-1 receptor (Homo sapiens, UniProt P43220).
T1 construct: expressed in transfected cells; host or cells: BHK cells, clone FCW467-12A/KZ10-1 (parent line BHKTS13), further transfected with CRE luciferase
The assay can be described thus: In vitro potency (CRE luciferase; whole cells). It is filed as cell-based. Details: EC50/pM (ratio 1% HSA/0% HSA): unit not given here. Particulars: for pEC50: In vitro potency (CRE luciferase) EC50 (1% HSA), BHK cells, 1% HSA; for EC50/pM (ratio 1% HSA/0% HSA): ratio of EC50 at 1% HSA to EC50 at 0% HSA. The procedure: The purpose of this example is to test the activity, or potency, of the GLP-1 derivatives in vitro. The in vitro potency is the measure of human GLP-1 receptor activation in a whole cell assay.
In vitro potency was determined by measuring the response of human GLP-1 receptor in a reporter gene assay. The assay was performed in a stably transfected BHK cell line that expresses the human GLP-1 receptor and contains the DNA for the cAMP response element (CRE) coupled to a promoter and the gene for firefly luciferase (CRE luciferase). When the human GLP-1 receptor was activated it results in the production of cAMP, which in turn results in the luciferase protein being expressed. When assay incubation was completed the luciferase substrate (luciferin) was added and the enzyme converts luciferin to oxyluciferin and produces bioluminescence. The luminescence was measured and was the readout for the assay.
An increase of the in vitro potency, EC50 value, in the presence of serum albumin indicates an affinity to serum albumin and represents a method to predict a protracted pharmacokinetic profile of the test substance in animal models.
The cells were cultured at 5% CO2 in cell culture medium. They were aliquoted and stored in liquid nitrogen. Before each assay an aliquot was taken up and washed twice in PBS before being suspended at the desired concentration in the assay specific buffer.
The following chemicals were used in the assay: Pluronic F-68 (10%) (Gibco 2404), human serum albumin (HSA) (Sigma A9511), ovalbumin (Sigma A5503), DMEM w/o phenol red (Gibco 11880-028), 1 M Hepes (Gibco 15630), Glutamax 100× (Gibco 35050) and steadylite plus (PerkinElmer 6016757).
1) Cell stocks were thawed in a 37° C. water bath.
2) Cells were washed three times in PBS.
3) The cells were counted and adjusted to 5×10^3 cells/50 μl (1×10^5 cells/ml) in assay medium. A 50 μl aliquot of cells was transferred to each well in the assay plate.
4) Stocks of the test compounds and reference compounds were diluted to a concentration of 0.2 μM in 0% assay buffer for the 0% HSA CRE luciferase assay and 1% assay buffer for the HSA CRE luciferase assay. […] 5) A 50 μl aliquot of compound or blank was transferred in triplicate from the dilution plate to the assay plate. […] 7) The assay plate was removed from the incubator and allowed to stand at room temperature for 15 min. 8) A 100 μl aliquot of steadylite plus reagent was added to each well of the assay plate (reagent was light sensitive). 9) Each assay plate was covered with aluminum foil to protect it from light and shaken for 30 min at room temperature. 10) Each assay plate was read in a Packard TopCount NXT instrument. Calculations and Results
The data from the TopCount instrument were transferred to GraphPad Prism software. The software averages the values for each replicate and performs a non-linear regression.

For assay [2], the target named is T1, human GLP-1 receptor. The assay can be described thus: GLP-1 receptor binding (SPA, displacement of 125I-GLP-1). The procedure: The purpose of this experiment is to investigate the binding to the GLP-1 receptor of the GLP-1 derivatives, and how the binding is potentially influenced by the presence of albumin. This is done in an in vitro experiment as described below.
In order to test the binding of the derivatives to albumin, the assay was performed with a low concentration of albumin (0.001%—corresponding to the residual amount thereof in the tracer), as well as with a high concentration of albumin (2.0% added). A shift in the binding affinity, IC50, is an indication that the peptide in question binds to albumin, and thereby a prediction of a potential protracted pharmacokinetic profile of the peptide in question in animal models.
Species (in vitro): Hamster
Biological End Point: Receptor Binding
A stable transfected cell line and a high expressing clone were selected for screening. The cells were grown at 5% CO2 in DMEM, 10% FCS, 1% Pen/Strep (Penicillin/Streptomycin) and 1.0 mg/ml of the selection marker G418.
The cells (approx. 80% confluence) were washed twice in PBS and harvested with Versene (aqueous solution of the tetrasodium salt of ethylenediaminetetraacetic acid), following which they were separated by centrifugation at 1000 rpm for 5 min. The cells/cell pellet must be kept on ice to the extent possible in the subsequent steps. The cell pellet was homogenised with Ultrathurrax for 20-30 seconds in a suitable amount of Buffer 1 (depending on the amount of cells, but e.g. 10 ml). The homogenate was centrifuged at 20000 rpm for 15 minutes. The pellet was resuspended (homogenised) in 10 ml Buffer 2 and re-centrifuged. This step was repeated once more. The resulting pellet was resuspended in Buffer 2, and the protein concentration was determined. The membranes were stored at minus 80° C.
Buffer 1:20 mM Na-HEPES+10 mM EDTA, pH 7.4
Buffer 2:20 mM Na-HEPES+0.1 mM EDTA, pH 7.4
Test compounds, membranes, SPA-particles and [^125I]-GLP-1(7-36)NH2 were diluted in assay buffer. 50 ul (micro liter) HSA (“high albumin” experiment containing 2% HSA), or buffer (“low albumin” experiment containing 0.001% HSA) was added to Optiplate, and 25 ul of test compounds were added. 5-10 ug membrane protein/sample was added (50 ul) corresponding to 0.1-0.2 mg protein/ml (to be preferably optimised for each membrane preparation). SPA-particles (Wheatgerm agglutinin SPA beads, Perkin Elmer, # RPNQ0001) were added in an amount of 0.5 mg/well (50 ul). The incubation was started with [^125I]-GLP-1]-(7-36)NH2 (final concentration 0.06 nM corresponding to 49.880 DPM, 25 ul). The plates were sealed with PlateSealer and incubated for 120 minutes at 30° C. while shaking. The plates were centrifuged (1500 rpm, 10 min) and counted in Topcounter.
A general note: Loss of bound radioactivity is the signal in a displacement assay; it reports binding, not function.

[3] abbreviates: Receptor binding affinity IC50 (high HSA), 2.0% HSA (high albumin).
The mark [4] stands for this setting: Receptor binding affinity IC50 (low HSA), 0.001% HSA (low albumin).

pEC50, pIC50: −log10 of the molar value. Numbered stars: 1 amine (or outer) side, 2 acyl side, 3 side chain; on linkers, the order of the positions; unused ones are H or OH. Square brackets hold non-standard residues; d marks the D form. Side chains are listed from the residue outwards. Peptide text beside a SMILES is read from it. * marks the point of attachment. Undecanoyl(11-OPh(4-COOH)) = O=C(O)c1ccc(OCCCCCCCCCCC(=O)*)cc1; γGlu = O=C(O)[C@H](CCC(=O)[*:2])N[*:1]; εLys = N[C@@H](CCCCN[*:1])C(=O)[*:2]; Aib = CC(C)(N)C(=O)O

T1 sequence (P43220 24-463): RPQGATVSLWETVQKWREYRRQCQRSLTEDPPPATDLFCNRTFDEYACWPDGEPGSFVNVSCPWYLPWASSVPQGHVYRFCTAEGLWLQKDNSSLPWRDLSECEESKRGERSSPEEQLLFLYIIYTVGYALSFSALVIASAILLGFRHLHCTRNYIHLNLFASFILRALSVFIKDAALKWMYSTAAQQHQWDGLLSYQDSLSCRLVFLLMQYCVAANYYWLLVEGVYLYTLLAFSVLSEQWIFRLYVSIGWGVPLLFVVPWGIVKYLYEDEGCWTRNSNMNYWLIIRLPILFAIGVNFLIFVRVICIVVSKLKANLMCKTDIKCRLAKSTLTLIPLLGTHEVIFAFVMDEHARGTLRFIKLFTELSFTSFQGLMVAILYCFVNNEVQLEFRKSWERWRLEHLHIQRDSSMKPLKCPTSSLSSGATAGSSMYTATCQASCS

What is called pEC50 is the EC50 on a negative log10 scale, so that one unit is a factor of ten. In general, pIC50 refers to −log10 of the IC50, conventionally taken in molar units. Consider `CC[C@H](C)[C@H](NC(=O)[C@H](Cc1ccccc1)NC(=O)[C@H](CCC(=O)O)NC(=O)[C@H](CCCCNC(=O)[C@H](CCCCNC(=O)[C@H](CCCCNC(=O)CC[C@H](NC(=O)CCCCCCCCCCOc1ccc(C(=O)O)cc1)C(=O)O)N(C)C)N(C)C)NC(=O)[C@H](C)NC(=O)[C@H](C)NC(=O)[C@H](CCC(N)=O)NC(=O)CNC(=O)[C@H](CCC(=O)O)NC(=O)[C@H](CC(C)C)NC(=O)[C@H](Cc1ccc(O)cc1)NC(=O)[C@H](CO)NC(=O)[C@H](CO)NC(=O)[C@@H](NC(=O)[C@H](CC(=O)O)NC(=O)[C@H](CO)NC(=O)[C@@H](NC(=O)[C@H](Cc1ccccc1)NC(=O)[C@@H](NC(=O)CNC(=O)[C@H](CCC(=O)O)NC(=O)C(C)(C)NC(=O)[C@@H](N)Cc1c[nH]cn1)[C@@H](C)O)[C@@H](C)O)C(C)C)C(=O)N[C@@H](C)C(=O)N[C@@H](Cc1c[nH]c2ccccc12)C(=O)N[C@@H](CC(C)C)C(=O)N[C@H](C(=O)N[C@@H](CCCNC(=N)N)C(=O)NCC(=O)N[C@@H](CCCNC(=N)N)C(=O)N[C@@H](CCCCNC(=O)[C@H](CCCCNC(=O)[C@H](CCCCNC(=O)CC[C@H](NC(=O)CCCCCCCCCCOc1ccc(C(=O)O)cc1)C(=O)O)N(C)C)N(C)C)C(=O)O)C(C)C` [Example 37, N^ε26-[(2S)-6-[[(2S)-6-[[(4S)-4-carboxy-4-[11-(4-carboxyphenoxy)undecanoylamino]butanoyl]amino]-2-(dimethylamino)hexanoyl]amino]-2-(dimethylamino)hexanoyl], N^ε37-[(2S)-6-[[(2S)-6-[[(4S)-4-carboxy-4-[11-(4-carboxyphenoxy)undecanoylamino]butanoyl]amino]-2-(dimethylamino)hexanoyl]amino]-2-(dimethylamino)hexanoyl]-[Aib^8,Arg^34,Lys^37]-GLP-1-(7-37)-peptide], for which, on human GLP-1 receptor [1], the pEC50 was 10.03. The compound further had a pIC50 at human GLP-1 receptor [2] (setting [3]) of 7.62.

With `CC[C@H](C)[C@H](NC(=O)[C@H](Cc1ccccc1)NC(=O)[C@H](CCC(=O)O)NC(=O)[C@H](CCCCNC(=O)[C@@H](N)CCCCNC(=O)[C@@H](N)CCCCNC(=O)CC[C@H](NC(=O)CCCCCCCCCCOc1ccc(C(=O)O)cc1)C(=O)O)NC(=O)[C@H](C)NC(=O)[C@H](C)NC(=O)[C@H](CCC(N)=O)NC(=O)CNC(=O)[C@H](CCC(=O)O)NC(=O)[C@H](CC(C)C)NC(=O)[C@H](Cc1ccc(O)cc1)NC(=O)[C@H](CO)NC(=O)[C@H](CO)NC(=O)[C@@H](NC(=O)[C@H](CC(=O)O)NC(=O)[C@H](CO)NC(=O)[C@@H](NC(=O)[C@H](Cc1ccccc1)NC(=O)[C@@H](NC(=O)CNC(=O)[C@H](CCC(=O)O)NC(=O)C(C)(C)NC(=O)[C@@H](N)Cc1c[nH]cn1)[C@@H](C)O)[C@@H](C)O)C(C)C)C(=O)N[C@@H](C)C(=O)N[C@@H](Cc1c[nH]cn1)C(=O)N[C@@H](CC(C)C)C(=O)N[C@H](C(=O)N[C@@H](CCC(N)=O)C(=O)NCC(=O)N[C@@H](CCCNC(=N)N)C(=O)N[C@@H](CCCCNC(=O)[C@@H](N)CCCCNC(=O)[C@@H](N)CCCCNC(=O)CC[C@H](NC(=O)CCCCCCCCCCOc1ccc(C(=O)O)cc1)C(=O)O)C(=O)O)C(C)C` [Example 31, N^ε26-[(2S)-2-amino-6-[[(2S)-2-amino-6-[[(4S)-4-carboxy-4-[11-(4-carboxyphenoxy)undecanoylamino]butanoyl]amino]hexanoyl]amino]hexanoyl], N^ε37-[(2S)-2-amino-6-[[(2S)-2-amino-6-[[(4S)-4-carboxy-4-[11-(4-carboxyphenoxy)undecanoylamino]butanoyl]amino]hexanoyl]amino]hexanoyl]-[Aib^8,His^31,Gln^34,Lys^37]-GLP-1-(7-37)-peptide], at human GLP-1 receptor [1], the negative logarithm of the EC50 (pEC50) was 9.26 and the “EC50/pM (ratio 1% HSA/0% HSA)” value stood at 82. On human GLP-1 receptor [2] (setting [3]), the pIC50 is 7.40. The pIC50 at human GLP-1 receptor [2] (setting [4]) was 9.12.

As to `CC[C@H](C)[C@H](NC(=O)[C@H](Cc1ccccc1)NC(=O)[C@H](CCC(=O)O)NC(=O)[C@H](CCCCNC(=O)[C@@H](N)CCCCNC(=O)CC[C@H](NC(=O)CC[C@H](NC(=O)CCCCCCCCCCOc1ccc(C(=O)O)cc1)C(=O)O)C(=O)O)NC(=O)[C@H](C)NC(=O)[C@H](C)NC(=O)[C@H](CCC(N)=O)NC(=O)[C@H](CCC(=O)O)NC(=O)[C@H](CCC(=O)O)NC(=O)[C@H](CC(C)C)NC(=O)[C@H](Cc1ccc(O)cc1)NC(=O)[C@H](CO)NC(=O)[C@H](CO)NC(=O)[C@@H](NC(=O)[C@H](CC(=O)O)NC(=O)[C@H](CO)NC(=O)[C@@H](NC(=O)[C@H](Cc1ccccc1)NC(=O)[C@@H](NC(=O)CNC(=O)[C@H](CCC(=O)O)NC(=O)C(C)(C)NC(=O)[C@@H](N)Cc1c[nH]cn1)[C@@H](C)O)[C@@H](C)O)C(C)C)C(=O)N[C@@H](CCC(=O)O)C(=O)N[C@@H](Cc1c[nH]c2ccccc12)C(=O)N[C@@H](CC(C)C)C(=O)N[C@H](C(=O)N[C@@H](CCCNC(=N)N)C(=O)NCC(=O)N[C@@H](CCCNC(=N)N)C(=O)N[C@@H](CCCCNC(=O)[C@@H](N)CCCCNC(=O)CC[C@H](NC(=O)CC[C@H](NC(=O)CCCCCCCCCCOc1ccc(C(=O)O)cc1)C(=O)O)C(=O)O)C(=O)N[C@@H](CCC(=O)O)C(=O)O)C(C)C` [Example 42, N^ε26-[(2S)-2-amino-6-[[(4S)-4-carboxy-4-[[(4S)-4-carboxy-4-[11-(4-carboxyphenoxy)undecanoylamino]butanoyl]amino]butanoyl]amino]hexanoyl], N^ε37-[(2S)-2-amino-6-[[(4S)-4-carboxy-4-[[(4S)-4-carboxy-4-[11-(4-carboxyphenoxy)undecanoylamino]butanoyl]amino]butanoyl]amino]hexanoyl]-[Aib^8,Glu^22,Glu^30,Arg^34, Lys^37]-GLP-1-(7-37)-peptidyl-Glu] (H-H[Aib]EGTFTSDVSSYLEEQAAK([εLys-γGlu-γGlu-Undecanoyl(11-OPh(4-COOH))])EFIEWLVRGRK([εLys-γGlu-γGlu-Undecanoyl(11-OPh(4-COOH))])E-OH; N-terminus and C-terminus assumed), the “EC50/pM (ratio 1% HSA/0% HSA)” value at human GLP-1 receptor [1] came to 251. The compound also gave a negative-log IC50 (pIC50) at human GLP-1 receptor [2] (setting [4]) of 10.70.
